Where two headings read alike, the source gives them in different places.
Legend:
[1] = test system: Tetranychus urticae (OP-resistant); assay: Tetranychus urticae - test (OP-resistant), French bean leaf discs; type: in vivo; settings: Tetranychus urticae, foliar; for mortality at 4 g/ha: 4 g ai/ha
Description: (§1) To produce a suitable preparation of active compound, 1 part by weight of active compound is mixed with the stated amount of solvent and emulsifier, and the concentrate is diluted with emulsifier-containing water to the desired concentration. To produce a suitable preparation of a biological suspension the cells or spores are diluted with emulsifier-containing water to the desired concentration.
Leaf discs of French beans (Phaseolus vulgaris) infected with all instars of the Two-spotted spider mite (Tetranychus urticae), are sprayed with a preparation of the active ingredient at the desired concentration.
After the specified period of time mortality in % is determined. 100% means that all spider mites have been killed; 0% means that none of the spider mites have been killed.

soybean (Glycine max) [2] = assay: Shoot weight - soybean (seed treatment); type: in vivo; settings: 0.3 g ai/kg seeds
Description: Seeds of soybean (Glycine max) were treated by being mixed with the desired amount of active compound and spores and water. After drying, each seed was sown into a pot filled with loamy sand. The pots were placed in the greenhouse with conditions appropriate for good plant growth.
After the specified period of time the plants were harvested and the shoot weight of the plants was determined. The weight is expressed in % whereupon the weight of the control is set 100%.

[3] = test system: Phaedon cochleariae larvae; assay: whole plant or invertebrate
Spodoptera frugiperda = Spodoptera frugiperda - spray application; type: in vivo; settings: Spodoptera frugiperda; for mortality at 4 g/ha: 4 g ai/ha; for mortality at 20 g/ha: 20 g ai/ha; for mortality at 100 g/ha: 100 g ai/ha
Description: as §1, with “cells, viruses” for “cells”
Cabbage (Brassica oleracea) leaf-discs are sprayed with a preparation of the active ingredient at the desired concentration. Once dry, the leaf discs are infested with larvae of the fall army worm (Spodoptera frugiperda).
After the specified period of time, mortality in % is determined. 100% means that all the caterpillars have been killed; 0% means that none of the caterpillars have been killed. The mortality values thus determined are recalculated using the Colby-formula.

[4] = test system: Tetranychus urticae (OP-resistant); assay: Tetranychus urticae - test; OP-resistant (TETRUR), bean plants sprayed; type: in vivo
Description: as §1, with “the desired concentration Ammonium salt and/or penetration enhancer in a dosage of 1000 ppm are added to the desired concentration if necessary. To produce” for “the desired concentration. To produce”
Bean plants (Phaseolus vulgaris) which are heavily infested with all stages of the two-spotted spider mite (Tetranychus urticae) are treated by being sprayed with the preparation of the active compound of the desired concentration.
After the specified period of time, mortality in % is determined 100% means that all the spider mites have been killed; 0% means that none of the spider mites have been killed.

soybean (Glycine max) [5] = assay: Seed treatment - germination test soybean; type: in vivo; settings: 0.15 g ai/kg seeds
Description: Seeds of soybean (Glycine max) were treated by being mixed with the desired amount of active compound and spores and water. After drying, 25 seeds were sown into each pot filled with sandy loam.
After the specified period of time the level of activity expressed in % was determined. The level of activity was calculated on the basis of the number of soybean plants which have successfully germinated.

Myzus persicae = assay: whole plant or invertebrate; settings: in Brassica rapa, foliar
[6] = read-out: Mortality in % after 2^d
[7] = read-out: Mortality in % after 6^d
[8] = read-out: Mortality in % after 1^d

Cc1cc(F)c(-n2nc(C(F)(F)F)nc2N)cc1[S+]([O-])CC(F)(F)F (racemic) [Compound (I)]
mortality at 4 g/ha [1, 6]: 30%
mortality at 4 g/ha [1, 7]: 30%
mortality at 20 g/ha ([1]; 20 g ai/ha, read-out: Mortality in % after 2^d): 80%
Shoot weight after 21 days control was set 100% (soybean (Glycine max) [2]): 98%
mortality at 0.8 g/ha [3, 6]: 0%
mortality at 4 g/ha [3, 6]: 0%
mortality at 20 g/ha [3, 6]: 0%
mortality at 100 g/ha [3, 6]: 0%
mortality at 4 g/ha [3, 7]: 0%
mortality at 20 g/ha [3, 7]: 0%
mortality at 100 g/ha [3, 7]: 0%
mortality at 0.8 g/ha (Spodoptera frugiperda; 0.8 g ai/ha, read-out: Mortality in % after 6^d): 0%
mortality at 4 g/ha (Spodoptera frugiperda; [6]): 0%
mortality at 4 g/ha (Spodoptera frugiperda; [7]): 0%
mortality at 20 g/ha (Spodoptera frugiperda; [6]): 0%
mortality at 20 g/ha (Spodoptera frugiperda; [7]): 0%
mortality at 100 g/ha (Spodoptera frugiperda; [6]): 0%
mortality at 100 g/ha (Spodoptera frugiperda; [7]): 0%
mortality at 0.8 ppm ([4]; read-out: Mortality in % after 3^d): 40%
mortality at 0.8 ppm ([4]; read-out: Mortality in % after 5^d): 40%
% Germination after 3 days control was set 100% (soybean (Glycine max) [5]): 97%
mortality at 4 g/ha (Myzus persicae; [8]): 0%
mortality at 20 g/ha (Myzus persicae; [8]): 0%
mortality at 100 g/ha (Myzus persicae; [8]): 0%
mortality at 4 g/ha (Myzus persicae; [7]): 0%
mortality at 20 g/ha (Myzus persicae; [7]): 0%
mortality at 100 g/ha (Myzus persicae; [7]): 0%
